According to publication PMC12621043, “Un-LOK-ing a New Approach for Conformational Selective Targeting of STK10 (LOK)” (ACS Medicinal Chemistry Letters, 2025):
“And” between values parts separate entries of the source, which are not always exact repeats. Identical values can stand only once.

How the values were obtained:
SRPK1A = target: T1, SRPK1A (Homo sapiens, UniProt Q96SB4); experiment: DSF Tm panel; type: binding; conditions: 10 μM compound
T1 construct: purchased in-house DSF kinase panel (SGC-style construct names; the trailing letter is the construct ID)

CDK2A = target: T2, CDK2A (Homo sapiens, UniProt P24941); experiment: DSF Tm panel; type: binding; conditions: 10 μM compound
T2 construct: purchased in-house DSF kinase panel (SGC-style construct names; the trailing letter is the construct ID)

CDC42BPAA = experiment: DSF Tm panel; type: binding; conditions: 10 μM compound
GSG2A = target: T3, GSG2A (Homo sapiens, UniProt Q8TF76); experiment: DSF Tm panel; type: binding; conditions: 10 μM compound
T3 construct: purchased in-house DSF kinase panel (SGC-style construct names; the trailing letter is the construct ID)
T3 sequence (Q8TF76 465-798): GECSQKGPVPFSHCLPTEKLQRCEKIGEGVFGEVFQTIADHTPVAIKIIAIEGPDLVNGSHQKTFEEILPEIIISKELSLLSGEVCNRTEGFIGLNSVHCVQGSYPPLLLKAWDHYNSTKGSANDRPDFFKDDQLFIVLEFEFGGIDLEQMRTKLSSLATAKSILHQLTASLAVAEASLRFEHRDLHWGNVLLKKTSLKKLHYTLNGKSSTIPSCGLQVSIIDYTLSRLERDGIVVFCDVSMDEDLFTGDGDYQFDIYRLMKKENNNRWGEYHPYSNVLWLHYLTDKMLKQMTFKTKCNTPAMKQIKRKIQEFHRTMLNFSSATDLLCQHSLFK

CAMKK2B = target: T4, CAMKK2B (Homo sapiens, UniProt Q96RR4); experiment: DSF Tm panel; type: binding; conditions: 10 μM compound
T4 construct: purchased in-house DSF kinase panel (SGC-style construct names; the trailing letter is the construct ID)

MST3A = target: T5, MST3A (Homo sapiens, UniProt Q9Y6E0); experiment: DSF Tm panel; type: binding; conditions: 10 μM compound
T5 construct: purchased in-house DSF kinase panel (SGC-style construct names; the trailing letter is the construct ID)

MAPK15A (MAPK15HSD) = target: T6, MAPK15A (MAPK15HSD) (Homo sapiens, UniProt Q8TD08); experiment: DSF Tm panel; type: binding; conditions: 10 μM compound
T6 sequence (Q8TD08 13-304 limits assumed): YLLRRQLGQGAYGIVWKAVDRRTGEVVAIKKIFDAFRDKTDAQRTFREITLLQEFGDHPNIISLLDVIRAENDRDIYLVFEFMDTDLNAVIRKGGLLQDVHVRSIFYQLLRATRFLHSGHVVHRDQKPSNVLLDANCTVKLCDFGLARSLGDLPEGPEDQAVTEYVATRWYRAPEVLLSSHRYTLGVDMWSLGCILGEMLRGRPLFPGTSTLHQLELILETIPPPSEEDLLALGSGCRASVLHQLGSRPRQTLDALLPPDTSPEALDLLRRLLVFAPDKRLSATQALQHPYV

CAMK2BA = target: T7, CAMK2BA (Homo sapiens, UniProt Q13554); experiment: DSF Tm panel; type: binding; conditions: 10 μM compound
T7 construct: purchased in-house DSF kinase panel (SGC-style construct names; the trailing letter is the construct ID)

EPHA2 (EPHA2A) = target: T8, EPHA2 (EPHA2A) (Homo sapiens, UniProt P29317); experiment: DSF Tm panel; type: binding; conditions: 10 μM compound
T8 construct: purchased in-house DSF kinase panel (SGC-style construct names; the trailing letter is the construct ID)
T8 sequence (P29317 596-900): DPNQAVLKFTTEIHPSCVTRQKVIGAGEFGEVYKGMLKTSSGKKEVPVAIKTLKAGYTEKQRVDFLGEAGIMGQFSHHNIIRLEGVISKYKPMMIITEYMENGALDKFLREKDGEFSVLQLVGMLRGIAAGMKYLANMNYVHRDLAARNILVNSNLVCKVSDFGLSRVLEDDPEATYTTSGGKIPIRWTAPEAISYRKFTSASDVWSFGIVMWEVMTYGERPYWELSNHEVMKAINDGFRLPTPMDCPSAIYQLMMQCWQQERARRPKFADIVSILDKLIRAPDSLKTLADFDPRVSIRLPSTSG

PCTK1A = target: T9, PCTK1A (Homo sapiens, UniProt Q00536); experiment: DSF Tm panel; type: binding; conditions: 10 μM compound
T9 construct: purchased in-house DSF kinase panel (SGC-style construct names; the trailing letter is the construct ID)

STK39A = target: T10, STK39A (Homo sapiens, UniProt Q9UEW8); experiment: DSF Tm panel; type: binding; conditions: 10 μM compound
T10 construct: purchased in-house DSF kinase panel (SGC-style construct names; the trailing letter is the construct ID)

STK4 (STK4A) = target: T11, STK4 (STK4A) (Homo sapiens, UniProt Q13043); experiment: DSF Tm panel; type: binding; conditions: 10 μM compound
T11 construct: purchased in-house DSF kinase panel (SGC-style construct names; the trailing letter is the construct ID)
T11 sequence (Q13043 1-311): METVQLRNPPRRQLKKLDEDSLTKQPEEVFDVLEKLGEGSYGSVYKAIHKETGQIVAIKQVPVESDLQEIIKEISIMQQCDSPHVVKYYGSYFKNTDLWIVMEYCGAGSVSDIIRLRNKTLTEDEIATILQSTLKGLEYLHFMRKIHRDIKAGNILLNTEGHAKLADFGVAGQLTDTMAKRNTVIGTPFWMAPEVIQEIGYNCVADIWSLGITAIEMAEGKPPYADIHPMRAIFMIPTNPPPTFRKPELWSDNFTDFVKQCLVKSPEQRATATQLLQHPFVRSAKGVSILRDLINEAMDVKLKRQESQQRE

CAMK1DA = target: T12, CAMK1DA (Homo sapiens, UniProt Q8IU85); experiment: DSF Tm panel; type: binding; conditions: 10 μM compound
T12 construct: purchased in-house DSF kinase panel (SGC-style construct names; the trailing letter is the construct ID)
Description: The synthesized urea-based derivatives were evaluated in a panel of kinases by differential scanning fluorescence (DSF) to investigate their selectivity profile. A positive ΔT m in the DSF assay indicates stabilization of the protein upon ligand binding in comparison to its apo state, with higher thermal shifts generally correlating with stronger binding. For this purpose, we used our internal kinase selectivity panel (∼90 kinases) along with staurosporine as a positive control. […] This was also reflected in the overall low selectivity score (S) throughout the series, which is determined by the ratio between the number of kinases that are stabilized above 5 °C and the total number of kinases tested (Figure ). Motivated by these findings, we further validated the entire series by orthogonal binding and activity assays to determine the in vitro and cellular potency and selectivity of the developed series in comparison to the selected reference compounds. […]
was performed as previously described.[1,2] Briefly, recombinant protein kinase domains at a concentration of 2 μM were mixed with 10 μM compound in a buffer containing 20 mM HEPES, […]
probe (1 µl per mL). Subsequently, temperature-dependent protein unfolding profiles were […]
emission filters were set to 465 nm and 590 nm, respectively. The temperature was raised with a step rate of 3 °C per minute. […]
inflection point of the transition curve. […]
previously.[3] In brief, STK10, STK3, STK4 and SLK were obtained as plasmids cloned in […]
Plasmids were transfected into
KD concentration taken from TracerDB (tracerdb.org)[4] were pipetted into white 384-well

SLK = SLK (Homo sapiens, UniProt Q9H2G2); experiment: PhosphoSens in vitro activity assay; type: biochemical; conditions: ATP 150 μM
STK10 = target: T13, STK10 (Homo sapiens, UniProt O94804); experiment: PhosphoSens in vitro activity assay; type: biochemical; conditions: ATP 160 μM
T13 construct: purchased in-house DSF kinase panel (SGC-style construct names; the trailing letter is the construct ID)
T13 sequence (O94804 18-317 limits assumed): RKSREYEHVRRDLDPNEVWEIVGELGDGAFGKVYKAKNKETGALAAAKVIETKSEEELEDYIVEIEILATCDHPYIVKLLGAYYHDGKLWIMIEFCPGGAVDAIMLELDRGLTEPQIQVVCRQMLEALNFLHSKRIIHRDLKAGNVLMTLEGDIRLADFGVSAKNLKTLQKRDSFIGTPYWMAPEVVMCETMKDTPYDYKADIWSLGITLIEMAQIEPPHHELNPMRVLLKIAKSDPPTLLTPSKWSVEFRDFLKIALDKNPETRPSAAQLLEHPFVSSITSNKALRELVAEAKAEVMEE

T5 sequence (Q9Y6E0 whole entry): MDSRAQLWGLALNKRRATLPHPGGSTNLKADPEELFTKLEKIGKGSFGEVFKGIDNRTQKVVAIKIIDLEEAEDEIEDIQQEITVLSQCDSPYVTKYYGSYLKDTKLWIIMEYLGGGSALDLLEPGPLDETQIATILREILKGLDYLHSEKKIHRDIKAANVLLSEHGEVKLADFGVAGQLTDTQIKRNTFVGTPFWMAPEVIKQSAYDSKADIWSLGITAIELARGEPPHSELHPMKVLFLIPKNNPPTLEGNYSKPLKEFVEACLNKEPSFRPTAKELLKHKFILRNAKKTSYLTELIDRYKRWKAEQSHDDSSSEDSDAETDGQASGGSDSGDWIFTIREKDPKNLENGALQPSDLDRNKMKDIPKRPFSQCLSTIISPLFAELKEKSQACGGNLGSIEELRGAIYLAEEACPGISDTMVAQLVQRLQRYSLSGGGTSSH
T7 sequence (Q13554 11-303): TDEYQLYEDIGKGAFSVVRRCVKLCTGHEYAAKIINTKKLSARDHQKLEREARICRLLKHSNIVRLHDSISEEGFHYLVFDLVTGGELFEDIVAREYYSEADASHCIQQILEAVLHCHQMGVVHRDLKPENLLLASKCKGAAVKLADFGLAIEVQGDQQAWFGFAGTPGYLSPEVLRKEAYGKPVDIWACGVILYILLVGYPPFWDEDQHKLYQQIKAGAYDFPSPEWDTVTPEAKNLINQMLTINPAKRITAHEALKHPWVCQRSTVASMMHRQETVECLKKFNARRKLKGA
T9 sequence (Q00536 163-478): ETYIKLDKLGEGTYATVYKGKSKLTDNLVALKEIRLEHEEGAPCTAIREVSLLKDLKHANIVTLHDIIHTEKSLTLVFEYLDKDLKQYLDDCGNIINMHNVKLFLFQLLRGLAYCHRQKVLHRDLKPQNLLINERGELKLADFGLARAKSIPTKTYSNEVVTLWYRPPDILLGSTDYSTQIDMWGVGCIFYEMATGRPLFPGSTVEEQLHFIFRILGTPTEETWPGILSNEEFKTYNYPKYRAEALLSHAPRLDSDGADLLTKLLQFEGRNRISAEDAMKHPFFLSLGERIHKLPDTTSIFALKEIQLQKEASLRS
T1 sequence (Q96SB4 80-653): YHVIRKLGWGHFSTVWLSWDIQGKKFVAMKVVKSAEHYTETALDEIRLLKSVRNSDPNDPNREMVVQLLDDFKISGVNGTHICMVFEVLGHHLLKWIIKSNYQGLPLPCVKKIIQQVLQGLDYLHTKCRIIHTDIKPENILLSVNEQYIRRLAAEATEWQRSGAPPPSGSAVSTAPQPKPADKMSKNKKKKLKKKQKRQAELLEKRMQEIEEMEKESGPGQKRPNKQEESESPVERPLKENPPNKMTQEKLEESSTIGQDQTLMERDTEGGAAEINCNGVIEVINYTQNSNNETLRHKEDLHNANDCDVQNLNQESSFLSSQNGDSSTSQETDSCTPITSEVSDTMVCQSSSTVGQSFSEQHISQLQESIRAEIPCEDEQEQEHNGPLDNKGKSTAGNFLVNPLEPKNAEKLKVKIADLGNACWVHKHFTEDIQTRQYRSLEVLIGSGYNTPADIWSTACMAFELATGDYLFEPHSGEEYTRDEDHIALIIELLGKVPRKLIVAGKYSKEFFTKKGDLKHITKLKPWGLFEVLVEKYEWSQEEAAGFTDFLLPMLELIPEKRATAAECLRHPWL
T4 sequence (Q96RR4 161-449): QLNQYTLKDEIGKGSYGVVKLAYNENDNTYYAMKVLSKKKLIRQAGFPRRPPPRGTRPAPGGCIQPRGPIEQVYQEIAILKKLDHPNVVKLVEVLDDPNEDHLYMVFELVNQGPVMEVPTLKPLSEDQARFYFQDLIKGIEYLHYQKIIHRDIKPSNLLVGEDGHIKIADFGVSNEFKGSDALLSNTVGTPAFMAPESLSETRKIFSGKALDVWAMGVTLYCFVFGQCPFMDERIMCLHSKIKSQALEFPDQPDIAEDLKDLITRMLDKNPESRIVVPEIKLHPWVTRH
T12 sequence (Q8IU85 whole entry): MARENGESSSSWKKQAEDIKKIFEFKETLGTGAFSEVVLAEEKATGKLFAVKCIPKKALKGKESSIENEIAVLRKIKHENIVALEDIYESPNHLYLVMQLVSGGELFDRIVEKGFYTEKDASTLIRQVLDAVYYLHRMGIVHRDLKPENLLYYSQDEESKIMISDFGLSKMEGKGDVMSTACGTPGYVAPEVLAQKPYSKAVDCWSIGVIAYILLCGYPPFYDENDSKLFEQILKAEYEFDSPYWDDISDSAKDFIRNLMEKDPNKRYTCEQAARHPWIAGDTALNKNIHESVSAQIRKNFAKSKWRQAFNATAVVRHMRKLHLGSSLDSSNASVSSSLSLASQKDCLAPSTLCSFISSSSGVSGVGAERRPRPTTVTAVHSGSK

Structure (SMILES)	ΔTm at 10 µM (SRPK1A)	ΔTm at 10 µM (CDK2A)	ΔTm at 10 µM (GSG2A)	ΔTm at 10 µM (CAMKK2B)	ΔTm at 10 µM (MST3A)	ΔTm at 10 µM (CAMK2BA)	ΔTm at 10 µM (EPHA2 (EPHA2A))	ΔTm at 10 µM (PCTK1A)	ΔTm at 10 µM (STK39A)	ΔTm at 10 µM (STK4 (STK4A))	ΔTm at 10 µM (CAMK1DA)	IC50 (SLK)	IC50 (STK10)	ΔTm CDC42BPAA (CDC42BPAA)	ΔTm at 10 µM (MAPK15A (MAPK15HSD))
Cc1cc(Br)ccc1CNC(=O)Nc1ccc2cc1OCCOCCNc1ccn3ncc-2c3n1 [compound 24]	-0.2 °C	1.6 °C	0 °C	0.7 °C	-4.3 °C	-0.2 °C	0.2 °C	0.7 °C	1 °C	2.8 °C	1.3 °C	5.35 ± 1.36 µM	4.62 ± 0.88 µM	0,7 °C	0.7 °C
CN1CCN(C(=O)Nc2ccc3cc2OCCOCCNc2ccn4ncc-3c4n2)CC1 [compound 35]	0.2 °C	1.4 °C	1.3 °C	2.9 °C	0.4 °C	0.6 °C	0.6 °C	1 °C	1.6 °C	0.9 °C	-1.2 °C	–	–	-0,6 °C	2 °C
O=C(NCc1ccccc1C(F)(F)F)Nc1ccc2cc1OCCOCCNc1ccn3ncc-2c3n1 [compound 27]	-0.1 °C	1.9 °C	0.7 °C	1.5 °C	-3.4 °C	-0.1 °C	0.2 °C	1.1 °C	1.5 °C	3.8 °C	1.7 °C	2.74 ± 0.89 µM	2.36 ± 0.6 µM	1,0 °C	2.4 °C
COc1cc(CNC(=O)Nc2ccc3cc2OCCOCCNc2ccn4ncc-3c4n2)ccc1F [compound 33]	0 °C	2.7 °C	2.8 °C	3.2 °C	-5.3 °C	0.1 °C	0.5 °C	1.7 °C	1.2 °C	3.8 °C	1.1 °C	> 20 µM	2.34 ± 0.79 µM	0,1 °C	3.3 °C
COc1ccc(CNC(=O)Nc2ccc3cc2OCCOCCNc2ccn4ncc-3c4n2)cc1F [compound 32]	0 °C	3.4 °C	1 °C	1.8 °C	-6.4 °C	0 °C	0.3 °C	2 °C	1.4 °C	4.4 °C	1.4 °C	11 ± 2.68 µM	3.33 ± 0.66 µM	0,1 °C	2.5 °C

Second part, led by results:

ΔTm at 10 µM (SRPK1A)	ΔTm at 10 µM (CDK2A)	ΔTm at 10 µM (GSG2A)	ΔTm at 10 µM (CAMKK2B)	ΔTm at 10 µM (MST3A)	ΔTm at 10 µM (CAMK2BA)	ΔTm at 10 µM (EPHA2 (EPHA2A))	ΔTm at 10 µM (PCTK1A)	ΔTm at 10 µM (STK39A)	ΔTm at 10 µM (STK4 (STK4A))	ΔTm at 10 µM (CAMK1DA)	IC50 (SLK)	IC50 (STK10)	Structure (SMILES)	ΔTm CDC42BPAA (CDC42BPAA)	ΔTm at 10 µM (MAPK15A (MAPK15HSD))
0 °C	2.9 °C	-0.3 °C	3.3 °C	0.7 °C	0.3 °C	0.5 °C	2.5 °C	2.4 °C	4.1 °C	-0.3 °C	6.83 ± 1.58 µM	1.53 ± 0.26 µM	O=C(NCc1ccccc1Cl)Nc1ccc2cc1OCCOCCNc1ccn3ncc-2c3n1 [compound 17]	0,1 °C	6 °C
0.6 °C	2.5 °C	0 °C	1.2 °C	0 °C	1.6 °C	0.4 °C	1.1 °C	1.9 °C	3.6 °C	1 °C	7.44 ± 1.64 µM	1.43 ± 0.28 µM	O=C(NCc1ccc(Cl)cc1Cl)Nc1ccc2cc1OCCOCCNc1ccn3ncc-2c3n1 [compound 20]	0,7 °C	1.3 °C
0.4 °C	5.9 °C	0.1 °C	3.5 °C	0.6 °C	0.8 °C	0.5 °C	1.1 °C	2.4 °C	4.9 °C	0.8 °C	8.88 ± 1.41 µM	2.62 ± 0.61 µM	O=C(NCc1ccc(Cl)cc1F)Nc1ccc2cc1OCCOCCNc1ccn3ncc-2c3n1 [compound 21]	0,4 °C	1.8 °C
0.2 °C	3.1 °C	-0.1 °C	1.9 °C	0.3 °C	0.9 °C	0.5 °C	2.8 °C	2.5 °C	7.4 °C	2.1 °C	3.43 ± 1.12 µM	0.85 µM and < 1 µM	Cc1cc(Cl)ccc1CNC(=O)Nc1ccc2cc1OCCOCCNc1ccn3ncc-2c3n1 [compound 23]	0,6 °C	0.8 °C
0.2 °C	5.6 °C	-0.2 °C	3.4 °C	0.7 °C	-0.1 °C	0.2 °C	1.3 °C	2.6 °C	5.5 °C	0.6 °C	7.16 ± 1.12 µM	0.95 ± 0.12 µM	O=C(NCc1ccc(Cl)cc1)Nc1ccc2cc1OCCOCCNc1ccn3ncc-2c3n1 [compound 19]	0,0 °C	1.8 °C
0.1 °C	3.3 °C	1.2 °C	1.8 °C	-5.3 °C	-0.1 °C	0.4 °C	1.9 °C	1.2 °C	4.1 °C	1.2 °C	–	2.74 ± 0.47 µM	COc1ccc(CNC(=O)Nc2ccc3cc2OCCOCCNc2ccn4ncc-3c4n2)cc1 [compound 31]	0,0 °C	4.1 °C
0 °C	3.3 °C	0.9 °C	1.8 °C	-4.5 °C	0.3 °C	0.1 °C	1 °C	1.3 °C	4.3 °C	2.1 °C	–	5 ± 0.61 µM	O=C(NCc1ccc(C(F)(F)F)cc1)Nc1ccc2cc1OCCOCCNc1ccn3ncc-2c3n1 [compound 28]	0,9 °C	0.5 °C
